Where a name gives a salt, the structure may show the parent alone.
Target: chymotrypsin (Bos taurus, UniProt P00766)
Experiment: chymotrypsin inhibitory effect (procedure of Muramatsu et al; acetyl-L-tyrosine ethyl ester substrate, Hestrin colour development)
Type: biochemical
Details: 10 min preincubation; 25 mM acetyl-L-tyrosine ethyl ester; 0.1M Tris-HCl pH 8.0; 37° C., 30 min; absorbance 530 nm; read-out: Inhibitory Activity [50% Inhibitory Concentration (M)]
Method: Some selected compounds of this invention were tested with respect to their chymotrypsin inhibitory effects.
The tests were conducted in accordance with the procedure of Muramatsu et al [The Journal of Biochemistry, 62, 408 (1967)]. A mixture was prepared which was made up of 0.1 ml of a dimethylsulfoxide solution of each test compound, 0.1 ml of water and 0.1 ml of a buffer solution containing 10 μg/ml of chymotrypsin (0.1M Tris-HCl buffer, pH 8.0). The mixture was incubated for 10 minutes, followed by addition of 0.2 ml of a buffer solution containing 25 mM of an ethyl ester of acetyl-L-tyrosine. The resulting mixture was reacted at 37° C. for 30 minutes. The remaining substrate was caused to develop a color by the Hesterin method, whereupon its absorbance was measured at 530 nm. As a comparative compound, use was made of tosylphenylalanine chloromethyl ketone (TPCK) which is known as an inhibitor for chymotrypsin.
The results are shown in Table 1 in which the numbers of the test compounds are indicated as those of the corresponding examples given hereunder.

Structure (SMILES) | IC50 [M]
CC(C)N1CCN(CC(=O)Nc2ccc(OC(=O)C3CCCc4ccccc43)cc2)CC1 (centres unmarked) [Example 1, 1-Isopropyl-4-[{4-(1,2,3,4-tetrahydro-1-naphthoyloxy)-phenyl}carbamoylmethyl]piperazine.dihydrochloride] | 4e-06
CC(C)N1CCN(C(=O)C=Cc2ccc(OC(=O)C3CCCc4ccccc43)cc2)CC1 (centres unmarked) [Example 2] | 3e-06
CC(C)N1CCN(CCNC(=O)c2ccc(OC(=O)C3CCCc4ccccc43)cc2)CC1 (centres unmarked) [Example 3] | 7e-07
CN1CCN(C(=O)C=Cc2ccc(OC(=O)C3CCCc4ccccc43)cc2)CC1 (centres unmarked) [Example 4] | 6e-07
CC(C)N1CCN(C(=O)COC(=O)c2ccc(OC(=O)C3CCCc4ccccc43)cc2)CC1 (centres unmarked) [Example 5] | 3e-08

From patent publication US4620005A, “1-isopropyl-4[(4-tetrahydro-1-naphthoyloxy phenyl)(alkylene)-carbonyl(oxymethlcarbonyl)]piperazines having chymotrypsin-inhibitory activity” (Kowa Co., Ltd., priority 1983, dated 1986)
